# According to ChEMBL document CHEMBL1201862, “PubChem BioAssay data set” (2004):
# Active and inactive are the calls of the source.
# Key:
# [1] = rise of 2N DNA cells, HeLa – IC50, dose response (AID 1117349); format: functional, cell-based
# [2] = rise of 4N DNA cells, HeLa – IC50, dose response (AID 1117351); format: functional, cell-based
# Fibrinogen beta chain [3] = target: T1, Fibrinogen beta chain (Homo sapiens, UniProt P02675); test: Fluorescence polarization-based biochemical high throughput dose response assay to identify inhibitors that disrupt the binding of a cyclic peptide (Tn6) to the fibrin proteolytic product D-Dimer and fragment E complex [DD(E )].
# Fibrinogen beta chain [4] = target: T1, Fibrinogen beta chain; test: Fluorescence polarization-based biochemical high throughput dose response assay to identify inhibitors that disrupt the binding of a cyclic peptide (Tn7) to the fibrin proteolytic product D-Dimer and fragment E complex [DD(E )].
# Kallikrein-7 = Kallikrein-7 (Homo sapiens, UniProt P49862); test: Fluorescence Intensity-based biochemical primary high throughput dose response assay to identify activators of kallikrein-7 (K7) zymogen.
# [5] = YAP1 overexpression rescue of CTGF inhibition – DLD1 cells, RT-qPCR, cherry-pick, mechanism study for YAP1 pathway inhibitor project, dose response (AID 1053127); format: functional, cell-based; settings: DLD-1
# [6] = CTGF mRNA reduction in DLD1 cells – cell-based, DLD1 colon cancer, RT-qPCR, cherry-pick, dose response (AID 1053122); format: functional; settings: Cancer cell lines
# [7] = Luminescence-based cell-based high throughput dose response assay to identify activators of the DAF-12 from the parasite S. stercoralis (ssDAF-12).; format: functional
# [8] = target: T2, Oxysterols receptor LXR-beta (Homo sapiens, UniProt P55055); test: LXR agonists, Gal4 luciferase reporter, dose response, counter-screen for ssDAF-12 agonist project, cell-based, luminescence, HEK293, S. stercoralis campaign (AID 720737); format: functional; settings: read-out: IC50 (the source's name)
# T2 sequence (P55055 whole entry): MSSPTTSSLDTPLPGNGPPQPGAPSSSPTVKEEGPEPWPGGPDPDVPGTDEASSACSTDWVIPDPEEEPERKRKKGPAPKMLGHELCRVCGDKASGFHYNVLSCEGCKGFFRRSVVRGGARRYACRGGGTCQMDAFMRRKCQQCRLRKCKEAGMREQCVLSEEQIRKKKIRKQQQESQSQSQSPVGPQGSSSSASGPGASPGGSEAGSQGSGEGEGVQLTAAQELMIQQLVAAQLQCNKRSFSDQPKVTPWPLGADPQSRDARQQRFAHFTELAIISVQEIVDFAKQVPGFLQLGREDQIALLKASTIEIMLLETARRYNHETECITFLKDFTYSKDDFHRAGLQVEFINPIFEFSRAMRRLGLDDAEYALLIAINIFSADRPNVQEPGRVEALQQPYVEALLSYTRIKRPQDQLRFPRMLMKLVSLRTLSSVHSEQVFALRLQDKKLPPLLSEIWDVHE
# [9] = antimalarial activity against Dd2 parasites – SYBR Green fluorescence, erythrocytes, dry powder, set 2, dose response (AID 1159574); format: functional, cell-based
# [10] = Dd2 parasite growth inhibition in erythrocytes – SYBR Green, dry powder samples, set 9, dose response (AID 1159568); format: functional, cell-based
# [11] = inhibitors of non-replicating M. tuberculosis, dose response, luciferase, dry powder (AID 651619); format: functional; settings: Mycobacterium tuberculosis
# T1 sequence (P02675 whole entry, the tested form may be a part): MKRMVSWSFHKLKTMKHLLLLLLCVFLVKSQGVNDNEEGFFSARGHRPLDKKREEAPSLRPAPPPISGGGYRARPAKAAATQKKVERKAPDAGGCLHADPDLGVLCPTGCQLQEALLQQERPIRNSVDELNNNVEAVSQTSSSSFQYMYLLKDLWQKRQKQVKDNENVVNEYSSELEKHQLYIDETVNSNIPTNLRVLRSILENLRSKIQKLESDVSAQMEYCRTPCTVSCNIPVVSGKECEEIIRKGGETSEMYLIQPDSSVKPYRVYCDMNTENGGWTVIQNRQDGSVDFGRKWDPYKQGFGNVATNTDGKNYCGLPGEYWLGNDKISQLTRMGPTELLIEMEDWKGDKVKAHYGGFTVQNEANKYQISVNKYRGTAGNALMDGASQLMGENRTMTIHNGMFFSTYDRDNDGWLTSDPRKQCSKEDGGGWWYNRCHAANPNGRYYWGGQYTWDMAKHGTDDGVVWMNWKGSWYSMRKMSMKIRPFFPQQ
# Chain of Kallikrein-7 (P49862 whole entry): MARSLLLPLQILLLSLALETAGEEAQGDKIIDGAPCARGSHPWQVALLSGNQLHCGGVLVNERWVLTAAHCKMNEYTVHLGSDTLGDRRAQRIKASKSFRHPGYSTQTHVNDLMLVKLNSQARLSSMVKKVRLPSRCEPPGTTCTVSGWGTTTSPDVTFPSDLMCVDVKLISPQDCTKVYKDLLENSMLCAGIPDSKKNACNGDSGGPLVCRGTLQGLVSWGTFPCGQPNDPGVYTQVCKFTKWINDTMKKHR
structure (smiles),measurement,setting,value
C[C@@H]1C[C@H]2[C@@H]3CCC4=CC(=O)C=C[C@]4(C)[C@@]3(Cl)[C@@H](O)C[C@]2(C)[C@@]1(OC(=O)c1ccco1)C(=O)CCl [MOMETASONE FUROATE],IC50,[1],> 10 µM (inactive)
same,IC50,[2],> 10 µM (inactive)
CN1CCS/C1=C/C=C1/SC(=S)N(Cc2ccccc2)C1=O,IC50,Fibrinogen beta chain [3],10.2 µM (inactive)
same,IC50,Fibrinogen beta chain [4],> 83.3 µM (inactive)
Nc1nc2ccc(Cl)cc2cc1C(=O)NCCCN1CCOCC1,EC50,Kallikrein-7,28.3 µM (inactive)
COc1ccccc1C#Cc1ccc([C@@H]2[C@@H](CO)N3CCCCN(C(=O)C4CCC4)C[C@@H]23)cc1,AC50,[5],17.7 µM (active)
same,AC50,[6],15.9 µM (active)
Cc1ccnc(NC(=O)c2ccc3nc(O)c(O)nc3c2)c1,IC50,[7],> 67.5 µM (inactive)
same,EC50,[8],> 67.5 µM (inactive)
COc1ccc2c3c([nH]c2c1)[C@@H](CO)N(C(C)=O)CC31CCN(C(=O)Nc2ccccc2F)CC1,AC50,[9],2.48 µM (active)
N#C[C@H]1[C@H](c2ccc(-c3cccc(F)c3)cc2)[C@@H](CO)N1C(=O)NC1CCCC1,AC50,[10],20.2 µM (active)
[N-]=[N+]=NCCOCCNC(=O)CCCn1cc(C[S+]([O-])c2nnc(-c3ccc(F)cc3)o2)nn1 (configuration not stated),IC90,[11],125 µM (active)
